Where a name gives a salt, the structure may show the parent alone.

This assay has as its target T1, human PPARα (Homo sapiens, UniProt Q07869).
T1 construct: amino acids S167-Y468; expressed in transfected cells; host or cells: HEK (human embryo kidney) cells, stably transfected with pcDNA3 carrying the fusion construct
T1 sequence (Q07869 167-468): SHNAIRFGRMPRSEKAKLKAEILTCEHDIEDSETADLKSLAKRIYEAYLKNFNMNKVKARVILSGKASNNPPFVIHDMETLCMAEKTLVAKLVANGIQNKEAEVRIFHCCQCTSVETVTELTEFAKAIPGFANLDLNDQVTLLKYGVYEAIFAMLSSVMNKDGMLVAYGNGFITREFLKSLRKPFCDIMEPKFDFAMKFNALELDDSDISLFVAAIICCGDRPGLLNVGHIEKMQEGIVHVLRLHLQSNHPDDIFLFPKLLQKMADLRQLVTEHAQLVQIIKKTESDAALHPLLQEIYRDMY
The assay is described as follows: Cellular PPARalpha assay (stably transfected HEK PPARalpha reporter cell line, luciferase). The note with it: 24 h incubation, luciferase readout. The assay is classed as cell-based. As to the method: (A) Determination of EC50 Values of PPAR Agonists in the Cellular PPARalpha Assay
The potency of substances that bind to human PPARα and activate in an agonistic manner is analyzed using a stably transfected HEK cell line (HEK=human embryo kidney) which is referred to here as PPARalpha reporter cell line. It contains two genetic elements, a luciferase reporter element (pΔM-GAL4-Luc-Zeo) and a PPARalpha fusion protein (GR-GAL4-humanPPARα-LBD) that mediates expression of the luciferase reporter element depending on a PPARalpha ligand. The stably and constitutively expressed fusion protein GR-GAL4-humanPPARalpha-LBD binds in the cell nucleus of the PPARalpha reporter cell line via the GAL4 protein portion to the GAL4 DNA binding motifs 5′-upstream of the luciferase reporter element which is integrated in the genome of the cell line. There is only little expression of the luciferase reporter gene without addition of a PPARalpha ligand if fatty acid-depleted fetal calf serum (cs-FCS) is used in the assay. PPARα ligands bind and activate the PPARα fusion protein and thereby bring about expression of the luciferase reporter gene. The luciferase which is formed can be detected by means of chemiluminescence via an appropriate substrate.
The PPARalpha reporter cell line was prepared in 2 stages. Firstly, the luciferase reporter element was constructed and stably transfected into HEK cells. For this purpose, five binding sites of the yeast transcription factor GAL4 (each 5′-CGGAGTACTGTCCTCCGAG-3′ (SEQ ID NO:1)) were cloned in 5′-upstream of a 68 bp-long minimal MMTV promoter (Genbank Accession # V01175). The minimal MMTV promoter section contains a CCAAT box and a TATA element in order to enable efficient transcription by RNA polymerase II. The cloning and sequencing of the GAL4-MMTV construct took place in analogy to the description of Sambrook J. et. al. (Molecular cloning, Cold Spring Harbor Laboratory Press, 1989). Then the complete Photinus pyralis gene (Genbank Accession # M15077) was cloned in 3′-downstream of the GAL4-MMTV element. After sequencing, the luceriferase reporter element consisting of five GAL4 binding sites, MMTV promoter and luciferase gene was recloned into a plasmid which confers zeocin resistance in order to obtain the plasmid pΔM-GAL4-Luc-Zeo. This vector was transfected into HEK cells in accordance with the statements in Ausubel, F. M. et al. (Current protocols in molecular biology, Vol.1-3, John Wiley & Sons, Inc., 1995). […] In a second step, the PPARalpha fusion protein (GR-GAL4-humanPPARalpha-LBD) was introduced into the stable cell clone described. For this purpose, initially the cDNA coding for the N-terminal 76 amino acids of the glucocorticoid receptor (Genbank Accession # P04150) was linked to the cDNA section coding for amino acids 1-147 of the yeast transcription factor GAL4 (Genbank Accession # P04386). The cDNA of the ligand-binding domain of the human PPARalpha receptor (amino acids S167-Y468; Genbank Accession # S74349) was cloned in at the 3′-end of this GR-GAL4 construct. The fusion construct prepared in this way (GR-GAL4-humanPPARalpha-LBD) was recloned into the plasmid pcDNA3 (from Invitrogen) in order to enable constitutive expression therein by the cytomegalovirus promoter. This plasmid was linearized with a restriction endonuclease and stably transfected into the previously described cell clone containing the luciferase reporter element. The finished PPARalpha reporter cell line that contains a luciferase reporter element and constitutively expresses the PPARalpha fusion protein (GR-GAL4-human PPARalpha-LBD) was isolated by selection with zeocin (0.5 mg/ml) and G418 (0.5 mg/ml).
The activity of PPARalpha agonists is determined in a 3-day assay described below: […]
For the compound `Cc1ccc(-c2nc(CO[C@@H]3CCC[C@H](CSCC(=O)O)C3)c(C)o2)cc1` (racemic) [Example 22], the EC50 (commonly the concentration giving half of the maximal effect) came out at 0.07 nM.

`Cc1ccc(-c2nc(COC3CCCC(CN[C@H](C(=O)O)C(C)C)C3)c(C)o2)cc1` (mixture of isomers) [Example 42, (S)-3-Methyl-2{[cis-3-(5-methyl-2-p-tolyloxazol-4-ylmethoxy)cyclohexyl-methyl]amino}butyric acid] registered an EC50 of 79 nM.

`Cc1ccc(-c2nc(COC3CCCC(CN(Cc4ccccc4)[C@H](C(=O)O)C(C)C)C3)c(C)o2)cc1` (mixture of isomers) [Example 51, (S)-2-{benzyl-[cis-3-(5-methyl-2-p-tolyloxazol-4-ylmethoxy)-cyclohexylmethyl]amino}-3-methylbutyric acid trifluoroacetic acid salt] yielded an EC50 of 12 nM.

For `CCc1oc(-c2ccc3ccccc3c2)nc1COC[C@@H]1CCC[C@H](COC(C)(C)C(=O)O)C1` (racemic) [Example 64, 2-[cis-3-(5-ethyl-2-(2-naphthyl)oxazol-4-yl-methoxymethyl)cyclohexylmethoxy]-2-methylpropionic acid], the EC50 came out at 0.4 nM. Compared with the last compound, the EC50 is about 30-fold lower.

Turning to `Cc1ccc(-c2nc(CO[C@@H]3CCC[C@H](COC(Cc4ccccc4)C(=O)O)C3)c(C)o2)cc1` (relative stereo) [Example 4, 2-[cis-3-(5-methyl-2-p-tolyloxazol-4-ylmethoxy)cyclohexyl-methoxy]-3-phenylpropionic acid], a half-maximal response (EC50) required 25 nM.

In the case of `Cc1ccc(-c2nc(CO[C@@H]3CCC[C@H](COC4(C(=O)O)CCCC4)C3)c(C)o2)cc1` (relative stereo) [Example 9, 1-[cis-3-(5-Methyl-2-p-tolyloxazol-4-ylmethoxy)cyclohexylmethoxy]cyclo-pentanecarboxylic acid], the EC50 is 4.3 nM.

Compound `COc1cccc(-c2nc(CO[C@@H]3CCC[C@H](CCC(C(=O)O)C(C)C)C3)c(C)o2)c1` (relative stereo) [Example 74, 2-(2-{cis-3-[2-(3-methoxyphenyl)-5-methyloxazol-4-ylmethoxy]cyclohexyl}ethyl)-3-methylbutyric acid] displayed an EC50 of 0.4 nM.

`Cc1ccc(-c2nc(CO[C@H]3CCC[C@@H](COC(C)(C)C(=O)O)C3)c(C)o2)cc1` [Example 8a, 2-[(1R,3S)-3-(5-Methyl-2-p-tolyloxazol-4-ylmethoxy)cyclohexylmethoxy]-2-methylpropionic Acid] returned an EC50 of 1.8 nM.

`Cc1oc(-c2ccc(C(F)(F)F)cc2)nc1COC1CCCC(COC(C)(C)C(=O)O)C1` [Example 16, 2-methyl-2-{(1R,3S)-cis-3-[5-methyl-2-(4-trifluoromethyl-phenyl)oxazol-4-ylmethoxy]cyclohexylmethoxy}propionic acid]: the EC50 worked out at 4 nM. Compared with the last compound, the EC50 is about 2.2-fold higher.

`CCC(SCC1CCCC(OCc2nc(-c3ccc(C)cc3)oc2C)C1)C(=O)O` (stereo not drawn) [Example 24, 2-[cis-3-(5-methyl-2-p-tolyloxazol-4-ylmethoxy)cyclohexylmethylsulfanyl]butyric acid] yielded an EC50 of 0.3 nM. This EC50 is about 13-fold lower than that of the compound before.

`CCCCCC(C(=O)O)[S+]([O-])CC1CCCC(OCc2nc(-c3ccc(C)cc3)oc2C)C1` (stereo not drawn) [Example 33, 2-[cis-3-(5-methyl-2-p-tolyloxazol-4-ylmethoxy)cyclohexylmethylsulfinyl]heptanoic acid] gave a concentration giving a half-maximal response (EC50) of 17 nM.

On to `CCCCCC(C(=O)O)S(=O)(=O)CC1CCCC(OCc2nc(-c3ccc(C)cc3)oc2C)C1` (stereo not drawn) [Example 38, 2-[cis-3-(5-methyl-2-p-tolyloxazol-4-ylmethoxy)cyclohexylmethylsulfonyl]heptanoic acid], for which the EC50 is 8.5 nM.

The values are drawn from US7259177B2, “Cycloalkylmethoxy-substituted acetic acid derivatives, processes for their preparation and their use as pharmaceuticals” (Sanofi-Aventis Deutschland GmbH, priority 2003, dated 2007).
